This passage reports Ki results from article PMC2872082 (Journal of the American Chemical Society, 2010).

This assay addresses T1, MshA (CgMshA) (Corynebacterium glutamicum, UniProt Q8NTA6).
T1 sequence (Q8NTA6 1-418): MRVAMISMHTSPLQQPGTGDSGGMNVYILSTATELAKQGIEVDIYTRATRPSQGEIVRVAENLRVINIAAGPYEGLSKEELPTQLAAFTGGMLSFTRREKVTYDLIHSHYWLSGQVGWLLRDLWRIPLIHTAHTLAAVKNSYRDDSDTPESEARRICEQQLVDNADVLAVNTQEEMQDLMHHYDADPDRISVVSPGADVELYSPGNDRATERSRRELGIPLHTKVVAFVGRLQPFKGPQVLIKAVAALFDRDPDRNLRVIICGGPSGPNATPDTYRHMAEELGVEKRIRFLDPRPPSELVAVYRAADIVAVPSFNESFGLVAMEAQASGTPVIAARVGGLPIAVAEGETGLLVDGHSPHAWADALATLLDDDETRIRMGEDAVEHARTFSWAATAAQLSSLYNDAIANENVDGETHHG
The experiment in a line: steady-state enzyme inhibition kinetics and slow-binding progress curves. The format is biochemical.

Usually Ki stands for a measure of affinity in units of concentration, obtained from inhibition or displacement. Read a high Ki as a looser hold on the target. As to `CC(=O)N[C@H]1[C@@H](OP(=O)(O)OP(=O)(O)OC[C@H]2O[C@@H](n3ccc(=O)[nH]c3=O)[C@H](O)[C@@H]2O)O[C@](F)(CO)[C@@H](O)[C@@H]1O` [UDP-(5F)-GlcNAc], the inhibition constant Ki worked out at 1400 ± 200 nM.
